In patent publication US20210395248A1, “INHIBITORS OF HUMAN IMMUNODEFICIENCY VIRUS REPLICATION” (ViiV HEALTHCARE UK (NO.5) LIMITED, priority 2018, published 2021):

Key:
[1] = system: recombinant NL4-3 virus (Renilla luciferase reporter) in MT-2 cells; experiment: HIV cell culture assay (antiviral activity, luciferase readout in infected MT-2 cells); type: cell-based; details: NL43
Description: HIV cell culture assay—MT-2 cells, 293T cells and the proviral DNA clone of NL4-3 virus were obtained from the NIH AIDS Research and Reference Reagent Program. MT-2 cells were propagated in RPMI 1640 media supplemented with 10% heat inactivated fetal bovine serum (FBS), […]. The 293T cells were propagated in DMEM media supplemented with 10% heat inactivated FBS, […]. A recombinant NL4-3 proviral clone, in which a section of the nef gene was replaced with the Renilla luciferase gene, was used to make the reference virus used in these studies. The recombinant virus was prepared through transfection of the recombinant NL4-3 proviral clone into 293T cells using Transit-293 Transfection Reagent from Mirus Bio LLC (Madison, Wis.). Supernatent was harvested after 2-3 days and the amount of virus present was titered in MT-2 cells using luciferase enzyme activity as a marker by measuring luciferase enzyme activity. Luciferase was quantitated using the EnduRen Live Cell Substrate from Promega (Madison, Wis.). Antiviral activities of compounds toward the recombinant virus were quantified by measuring luciferase activity in MT-2 cells infected for 4-5 days with the recombinant virus in the presence of serial dilutions of the compound.
The 50% effective concentration (EC50) was calculated by using the exponential form of the median effect equation where (Fa)=1/[1+(EC50/drug conc.)m] (Johnson V A, Byington RT. Infectivity Assay. In Techniques in HIV Research, ed. Aldovini A, Walker B D. 71-76. New York: Stockton Press. 1990). The 50% inhibitory concentration (EC50) was calculated by using the exponential form of the median effect equation where percent inhibition=1/[1+(EC50/drug concentration)m], where m is a parameter that reflects the slope of the concentration-response curve.

[2] = Compound cytotoxicity, XTT-based colorimetric assay; type: cell-based; details: human; uninfected MT2 cells, day 4, XTT; read-out: CC50
Description: Compound cytotoxicity and the corresponding CC50 values were determined using the same protocol as described in the antiviral assay except that uninfected cells were used. Cytotoxicity was assessed on day 4 in uninfected MT2 cells by using a XTT (2,3-bis [2-Methoxy-4-nitro-5-sulfophenyl]-2H-tetrazolium-5-carboxyanilide inner salt)-based colorimetric assay (Sigma-Aldrich, St Louis, Mo.).

Row | Compound | EC50 [1] | CC50 at 4 days [2]
1 | C[C@@H]1CN(c2ccc3c(=O)n(-c4ccc(Cl)c5c(NS(C)(=O)=O)nn(C)c45)c([C@H](Cc4cc(F)cc(F)c4)NC(=O)Cn4ccc(C5CC5)n4)nc3n2)C[C@H](C)O1 (atropisomer, axis not shown; (P)) [Example 16, N—((S)-1-((3P)-3-(4-chloro-1-methyl-3-(methylsulfonamido)-1H-indazol-7-yl)-7-((2S,6R)-2,6-dimethylmorpholino)-4-oxo-3,4-dihydropyrido[2,3-d]pyrimidin-2-yl)-2-(3,5-difluorophenyl)ethyl)-2-(3-cyclopropyl-1H-pyrazol-1-yl)acetamide] | 0.2 nM | > 500 nM
2 | C[C@@H]1CN(c2ccc3c(=O)n(-c4ccc(Cl)c5c(NS(C)(=O)=O)nn(CC(F)(F)F)c45)c([C@H](Cc4cc(F)cc(F)c4)NC(=O)Cn4ccc(C5CC5)n4)nc3n2)C[C@H](C)O1 (atropisomer, axis not shown; (P)) [Example 17, N—((S)-1-((3P)-3-(4-chloro-3-(methylsulfonamido)-1-(2,2,2-trifluoroethyl)-1H-indazol-7-yl)-7-((2S,6R)-2,6-dimethylmorpholino)-4-oxo-3,4-dihydropyrido[2,3-d]pyrimidin-2-yl)-2-(3,5-difluorophenyl)ethyl)-2-(3-cyclopropyl-1H-pyrazol-1-yl)acetamide] | 0.24 nM | > 500 nM
3 | CC(C)n1ccc(CC(=O)N[C@@H](Cc2cc(F)cc(F)c2)c2nc3nc(N4C[C@@H](C)O[C@@H](C)C4)ccc3c(=O)n2-c2ccc(Cl)c3c(NS(C)(=O)=O)nn(C)c23)n1 (atropisomer, axis not shown; (P)) [Example 18, N—((S)-1-((3P)-3-(4-chloro-1-methyl-3-(methylsulfonamido)-1H-indazol-7-yl)-7-((2S,6R)-2,6-dimethylmorpholino)-4-oxo-3,4-dihydropyrido[2,3-d]pyrimidin-2-yl)-2-(3,5-difluorophenyl)ethyl)-2-(1-isopropyl-1H-pyrazol-3-yl)acetamide] | 0.16 nM | > 100 nM
4 | Cn1nc(NS(C)(=O)=O)c2c(Cl)ccc(-n3c([C@H](Cc4cc(F)cc(F)c4)NC(=O)Cn4nc(C(F)F)c5c4C(F)(F)[C@@H]4C[C@H]54)nc4nc(N5CCCOCC5)ccc4c3=O)c21 (atropisomer, axis not shown; (P)) [Example 22, N—((S)-1-((3P)-3-(4-chloro-1-methyl-3-(methylsulfonamido)-1H-indazol-7-yl)-7-(1,4-oxazepan-4-yl)-4-oxo-3,4-dihydropyrido[2,3-d]pyrimidin-2-yl)-2-(3,5-difluorophenyl)ethyl)-2-((3bS,4aR)-3-(difluoromethyl)-5,5-difluoro-3b,4,4a,5-tetrahydro-1H-cyclopropa[3,4]cyclopenta[1,2-c]pyrazol-1-yl)acetamide] | 0.052 nM | > 100 nM
5 | Cn1nc(NS(C)(=O)=O)c2c(Cl)ccc(-n3c([C@H](Cc4cc(F)cc(F)c4)NC(=O)Cn4nc(C(F)F)c5c4C(F)(F)[C@@H]4C[C@H]54)nc4nc(N5CCOCC5)ccc4c3=O)c21 (atropisomer, axis not shown; (P)) [Example 23, N—((S)-1-((3P)-3-(4-chloro-1-methyl-3-(methylsulfonamido)-1H-indazol-7-yl)-7-morpholino-4-oxo-3,4-dihydropyrido[2,3-d]pyrimidin-2-yl)-2-(3,5-difluorophenyl)ethyl)-2-((3bS,4aR)-3-(difluoromethyl)-5,5-difluoro-3b,4,4a,5-tetrahydro-1H-cyclopropa[3,4]cyclopenta[1,2-c]pyrazol-1-yl)acetamide] | 0.058 nM | > 100 nM
6 | Cn1nc(NS(C)(=O)=O)c2c(Cl)ccc(-n3c([C@H](Cc4cc(F)cc(F)c4)NC(=O)Cn4nc(C(F)F)c5c4C(F)(F)[C@@H]4C[C@H]54)nc4nc(NCCC(C)(C)F)ccc4c3=O)c21 (atropisomer, axis not shown; (P)) [Example 24, N—((S)-1-((3P)-3-(4-chloro-1-methyl-3-(methylsulfonamido)-1H-indazol-7-yl)-7-((3-fluoro-3-methylbutyl)amino)-4-oxo-3,4-dihydropyrido[2,3-d]pyrimidin-2-yl)-2-(3,5-difluorophenyl)ethyl)-2-((3bS,4aR)-3-(difluoromethyl)-5,5-difluoro-3b,4,4a,5-tetrahydro-1H-cyclopropa[3,4]cyclopenta[1,2-c]pyrazol-1-yl)acetamide] | 0.04 nM | > 100 nM
7 | Cn1nc(NS(C)(=O)=O)c2c(Cl)ccc(-n3c([C@H](Cc4cc(F)cc(F)c4)NC(=O)Cn4nc(C(F)F)c5c4C(F)(F)[C@@H]4C[C@H]54)nc4nc(NCCC(C)(F)F)ccc4c3=O)c21 (atropisomer, axis not shown; (P)) [Example 25, N—((S)-1-((3P)-3-(4-chloro-1-methyl-3-(methylsulfonamido)-1H-indazol-7-yl)-7-((3,3-difluorobutyl)amino)-4-oxo-3,4-dihydropyrido[2,3-d]pyrimidin-2-yl)-2-(3,5-difluorophenyl)ethyl)-2-((3bS,4aR)-3-(difluoromethyl)-5,5-difluoro-3b,4,4a,5-tetrahydro-1H-cyclopropa[3,4]cyclopenta[1,2-c]pyrazol-1-yl)acetamide] | 0.037 nM | > 100 nM
8 | Cn1nc(NS(C)(=O)=O)c2c(Cl)ccc(-n3c([C@H](Cc4cc(F)cc(F)c4)NC(=O)Cn4nc(C(F)F)c5c4C(F)(F)[C@@H]4C[C@H]54)nc4nc(N5CC(C)(C)OC(C)(C)C5)ccc4c3=O)c21 (atropisomer, axis not shown; (P)) [Example 26, N—((S)-1-((3P)-3-(4-chloro-1-methyl-3-(methylsulfonamido)-1H-indazol-7-yl)-4-oxo-7-(2,2,6,6-tetramethylmorpholino)-3,4-dihydropyrido[2,3-d]pyrimidin-2-yl)-2-(3,5-difluorophenyl)ethyl)-2-((3bS,4aR)-3-(difluoromethyl)-5,5-difluoro-3b,4,4a,5-tetrahydro-1H-cyclopropa[3,4]cyclopenta[1,2-c]pyrazol-1-yl)acetamide] | 0.023 nM | > 100 nM
9 | Cn1nc(NS(C)(=O)=O)c2c(Cl)ccc(-n3c([C@H](Cc4cc(F)cc(F)c4)NC(=O)Cn4nc(C(F)F)c5c4C(F)(F)[C@@H]4C[C@H]54)nc4nc(N5CCOC(C)(C)C5)ccc4c3=O)c21 (atropisomer, axis not shown; (P)) [Example 29, N—((S)-1-((3P)-3-(4-chloro-1-methyl-3-(methylsulfonamido)-1H-indazol-7-yl)-7-(2,2-dimethylmorpholino)-4-oxo-3,4-dihydropyrido[2,3-d]pyrimidin-2-yl)-2-(3,5-difluorophenyl)ethyl)-2-((3bS,4aR)-3-(difluoromethyl)-5,5-difluoro-3b,4,4a,5-tetrahydro-1H-cyclopropa[3,4]cyclopenta[1,2-c]pyrazol-1-yl)acetamide] | 0.035 nM | > 100 nM
10 | CN(CCC(F)(F)F)c1ccc2c(=O)n(-c3ccc(Cl)c4c(NS(C)(=O)=O)nn(C)c34)c([C@H](Cc3cc(F)cc(F)c3)NC(=O)Cn3nc(C(F)F)c4c3C(F)(F)[C@@H]3C[C@H]43)nc2n1 (atropisomer, axis not shown; (P)) [Example 30, N—((S)-1-((3P)-3-(4-chloro-1-methyl-3-(methylsulfonamido)-1H-indazol-7-yl)-7-(methyl(3,3,3-trifluoropropyl)amino)-4-oxo-3,4-dihydropyrido[2,3-d]pyrimidin-2-yl)-2-(3,5-difluorophenyl)ethyl)-2-((3bS,4aR)-3-(difluoromethyl)-5,5-difluoro-3b,4,4a,5-tetrahydro-1H-cyclopropa[3,4]cyclopenta[1,2-c]pyrazol-1-yl)acetamide] | 0.032 nM | > 100 nM
11 | Cn1nc(NS(C)(=O)=O)c2c(Cl)ccc(-n3c([C@H](Cc4cc(F)cc(F)c4)NC(=O)Cn4nc(C(F)F)c5c4C(F)(F)[C@@H]4C[C@H]54)nc4nc(NCCCC(F)(F)F)ccc4c3=O)c21 (atropisomer, axis not shown; (P)) [Example 31, N—((S)-1-((3P)-3-(4-chloro-1-methyl-3-(methylsulfonamido)-1H-indazol-7-yl)-4-oxo-7-((4,4,4-trifluorobutyl)amino)-3,4-dihydropyrido[2,3-d]pyrimidin-2-yl)-2-(3,5-difluorophenyl)ethyl)-2-((3bS,4aR)-3-(difluoromethyl)-5,5-difluoro-3b,4,4a,5-tetrahydro-1H-cyclopropa[3,4]cyclopenta[1,2-c]pyrazol-1-yl)acetamide] | 0.11 nM | > 100 nM
